Test results published in US20110082130A1 (LIGAND PHARMACEUTICALS, INC., priority 2006, published 2011).
Like-named read-outs stand apart in the source and are kept apart here.

Molecular target: T1, chimeric human H3 receptor (Homo sapiens, UniProt Q9Y5N1)
T1 construct: made in house; host or cells: Sf9 insect cells (baculovirus); P2 membrane preparation
Assay: Chimeric human H3 receptor screening GTP binding assay (inhibition of histamine-stimulated GTP-gamma35S binding, Example 8)
Assay type: biochemical
Conditions: 4 μM of the compound, 1 μM histamine, read-out: percent inhibition of the signal obtained with 1 μM histamine
Procedure: This Example illustrates a representative screening assay for evaluating inhibition of histamine-stimulated GTP-gamma^35S binding. Such GTP binding activity can be used to identify H3 antagonists and inverse agonists. A compound analyzed in this assay is referred to herein as a “test compound,” and the initial identification of antagonists and inverse agonists is performed using a test compound concentration of 4 μM.
Four independent baculoviral stocks (one directing the expression of the chimeric human H3 receptor and three directing the expression of each of the three subunits of a heterotrimeric G-protein) are used to infect a culture of Sf9 cells as described above. P2 membranes are prepared as described above, and are resuspended by Dounce homogenization (tight pestle) in GTP binding assay buffer (50 mM Tris pH 7.4, 120 mM NaCl, 5 mM MgCl2, 2 mM EGTA, 1 mg/ml BSA, 0.2 mg/ml bacitracin, 0.02 mg/ml aprotinin, 0.01 mg/ml saponin, 10 μM GDP) and added to assay tubes at a concentration of 35 μg protein/reaction tube. Non-radiolabeled test compounds are added to separate reactions at a concentration of 4 μM along with 1 μM histamine (agonist). Reactions are initiated by the addition of […] GTP-gamma^35S with a final assay volume of 0.20 ml.
After a 60-min incubation at room temperature, reactions are terminated by vacuum filtration over GF/C filters (pre-soaked in 50 mM Tris pH 7.4, 120 mM NaCl plus 0.1% BSA) followed by washing with ice-cold buffer (50 mM Tris pH 7.4, 120 mM NaCl). The amount of receptor-bound (and thereby membrane-bound) GTP-gamma^35S is determined by measuring the bound radioactivity, preferably by liquid scintillation spectrometry of the washed filters. Non-specific binding is determined using 10 uM GTP-gammaS and typically represents less than 5 percent of total binding. After subtraction of non-specific binding, data is expressed as percent inhibition of 1 μM histamine signal.
Neutral antagonists are those test compounds that reduce the histamine-stimulated GTP binding activity towards, but not below, baseline levels. In contrast, in the absence of added histamine, inverse agonists reduce the GTP binding activity of the receptor-containing membranes below baseline. Any test compound that elevates GTP binding activity above baseline in the absence of added histamine in this assay is defined as having agonist activity.

T1 sequence (Q9Y5N1 with tags, fused parts or gaps): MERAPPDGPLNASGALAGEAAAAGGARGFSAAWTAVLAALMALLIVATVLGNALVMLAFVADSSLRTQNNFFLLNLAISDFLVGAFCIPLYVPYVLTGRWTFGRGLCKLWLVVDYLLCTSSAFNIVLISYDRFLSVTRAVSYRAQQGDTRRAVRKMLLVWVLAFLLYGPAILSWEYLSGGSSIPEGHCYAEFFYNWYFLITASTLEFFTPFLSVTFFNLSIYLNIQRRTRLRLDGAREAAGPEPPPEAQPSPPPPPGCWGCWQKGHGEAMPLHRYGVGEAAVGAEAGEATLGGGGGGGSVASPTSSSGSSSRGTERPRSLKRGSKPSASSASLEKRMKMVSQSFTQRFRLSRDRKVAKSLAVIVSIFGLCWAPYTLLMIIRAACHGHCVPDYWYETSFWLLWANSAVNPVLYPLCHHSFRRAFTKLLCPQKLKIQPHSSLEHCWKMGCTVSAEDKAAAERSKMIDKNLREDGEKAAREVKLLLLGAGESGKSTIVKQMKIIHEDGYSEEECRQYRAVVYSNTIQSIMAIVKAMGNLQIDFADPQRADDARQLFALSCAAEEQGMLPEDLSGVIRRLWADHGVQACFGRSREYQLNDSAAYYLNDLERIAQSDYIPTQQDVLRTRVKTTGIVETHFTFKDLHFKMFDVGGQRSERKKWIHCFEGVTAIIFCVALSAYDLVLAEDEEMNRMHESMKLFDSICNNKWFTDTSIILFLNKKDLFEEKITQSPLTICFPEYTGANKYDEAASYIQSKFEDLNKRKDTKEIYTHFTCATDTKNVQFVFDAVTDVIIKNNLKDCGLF

Row | Structure (SMILES) | inhibition at 4 µM (Table II "Ki", symbol †) | inhibition at 4 µM ("†" in Ki of Table II)
1 | CC(C)C(C)N1C[C@@H]2C[C@H]1CN2C(=O)CN1CCc2cc(-c3cncnc3)ccc2C1 (stereo in doubt) [Compound 608, 2-{2-[(1S,4S)-5-(1,2-dimethylpropyl)-2,5-diazabicyclo[2.2.1]hept-2-yl]-2-oxoethyl}-6-pyrimidin-5-yl-1,2,3,4-tetrahydroisoquinoline] | ≥ 90% | 
2 | O=C(CN1CCc2cc(-c3cncnc3)ccc2C1)N1C[C@@H]2C[C@H]1CN2C1CCCC1 (stereo in doubt) [Compound 612, 2-{2-[(1S,4S)-5-cyclopentyl-2,5-diazabicyclo[2.2.1]hept-2-yl]-2-oxoethyl}-6-pyrimidin-5-yl-1,2,3,4-tetrahydroisoquinoline] | ≥ 90% | 
3 | CC1CCCC1N1C[C@@H]2C[C@H]1CN2C(=O)CN1CCc2cc(-c3cncnc3)ccc2C1 (stereo in doubt) [Compound 615, 2-{2-[(1S,4S)-5-(2-methylcyclopentyl)-2,5-diazabicyclo[2.2.1]hept-2-yl]-2-oxoethyl}-6-pyrimidin-5-yl-1,2,3,4-tetrahydroisoquinoline] | ≥ 90% | 
4 | O=C(CN1CCc2cc(-c3cncnc3)ccc2C1)N1C[C@@H]2C[C@H]1CN2C1CCCCC1 (stereo in doubt) [Compound 618, 2-{2-[(1S,4S)-5-cyclohexyl-2,5-diazabicyclo[2.2.1]hept-2-yl]-2-oxoethyl}-6-pyrimidin-5-yl-1,2,3,4-tetrahydroisoquinoline] | ≥ 90% | 
5 | COC1CCCCC1N1C[C@@H]2C[C@H]1CN2C(=O)CN1CCc2cc(-c3cncnc3)ccc2C1 (stereo in doubt) [Compound 620, 2-{2-[(1S,4S)-5-(2-methoxycyclohexyl)-2,5-diazabicyclo[2.2.1]hept-2-yl]-2-oxoethyl}-6-pyrimidin-5-yl-1,2,3,4-tetrahydroisoquinoline] | ≥ 90% | 
6 | COc1ccc(C(C)C)cc1-c1nc2c(s1)CN(CC(=O)N1CCN(C3CCC3)CC1)CC2 [Compound 337, 5-[2-(4-cyclobutylpiperazin-1-yl)-2-oxoethyl]-2-(5-isopropyl-2-methoxyphenyl)-4,5,6,7-tetrahydro[1,3]thiazolo [5,4-c]pyridine] |  | ≥ 90%
7 | COc1ccc(F)cc1-c1nc2c(s1)CN(CC(=O)N1CCN(C3CCC3)CC1)CC2 [Compound 343, 5-[2-(4-cyclobutylpiperazin-1-yl)-2-oxoethyl]-2-(5-fluoro-2-methoxyphenyl)-4,5,6,7-tetrahydro[1,3]thiazolo [5,4-c]pyridine] |  | ≥ 90%
8 | O=C(CN1CCc2nc(-c3ccccc3Oc3ccccc3)sc2C1)N1CCN(C2CCC2)CC1 [Compound 345, 5-[2-(4-cyclobutylpiperazin-1-yl)-2-oxoethyl]-2-(2-phenoxyphenyl)-4,5,6,7-tetrahydro[1,3] thiazolo[5,4-c]pyridine] |  | ≥ 90%
9 | O=C(CN1CCc2cc(-c3cccc4c3oc3ccccc34)ccc2C1)N1CCN(C2CCCC2)CC1 [Compound 379, 2-[2-(4-cyclopentylpiperazin-1-yl)-2-oxoethyl]-6-dibenzo[b,d]furan-4-yl-1,2,3,4-tetrahydroisoquinoline] |  | ≥ 90%
10 | O=C(CN1CCc2cc(-c3cccc4c3oc3ccccc34)ccc2C1)N1CCN(C2CCCCC2)CC1 [Compound 384, 2-[2-(4-cyclohexylpiperazin-1-yl)-2-oxoethyl]-6-dibenzo[b,d]furan-4-yl-1,2,3,4-tetrahydroisoquinoline] |  | ≥ 90%
11 | CC(C)N1CCN(C(=O)CN2CCc3cc(-c4ccc5c(c4)OCCO5)ccc3C2)CC1 [Compound 385, 6-(2,3-dihydro-1,4-benzodioxin-6-yl)-2-[2-(4-isopropylpiperazin-1-yl)-2-oxoethyl]-1,2,3,4-tetrahydroisoquinoline] |  | ≥ 90%
12 | O=C(CN1CCc2cc(-c3cccc4c3oc3ccccc34)ccc2C1)N1CCN(C2CCC2)CC1 [Compound 388, 2-[2-(4-cyclobutylpiperazin-1-yl)-2-oxoethyl]-6-dibenzo[b,d]furan-4-yl-1,2,3,4-tetrahydroisoquinoline] |  | ≥ 90%
13 | O=C(CN1CCc2cc(-c3ccccc3)ccc2C1)N1CCN(C2CCC2)CC1 [Compound 398, 2-[2-(4-cyclobutylpiperazin-1-yl)-2-oxoethyl]-6-phenyl-1,2,3,4-tetrahydroisoquinoline] |  | ≥ 90%
14 | O=C(CN1CCc2cc(-c3ccc(Cl)cc3)ccc2C1)N1CCN(C2CCC2)CC1 [Compound 404, 6-(4-chlorophenyl)-2-[2-(4-cyclobutylpiperazin-1-yl)-2-oxoethyl]-1,2,3,4-tetrahydroisoquinoline] |  | ≥ 90%
15 | O=C(CN1CCc2cc(-c3ccc(Cl)cc3)ccc2C1)N1CCN(C2CCCC2)CC1 [Compound 405, 6-(4-chlorophenyl)-2-[2-(4-cyclopentylpiperazin-1-yl)-2-oxoethyl]-1,2,3,4-tetrahydroisoquinoline] |  | ≥ 90%
16 | O=C(CN1CCc2cc(-c3ccc(Cl)cc3)ccc2C1)N1CCN(C2CCCCC2)CC1 [Compound 406, 6-(4-chlorophenyl)-2-[2-(4-cyclohexylpiperazin-1-yl)-2-oxoethyl]-1,2,3,4-tetrahydroisoquinoline] |  | ≥ 90%
17 | O=C(CN1CCc2cc(-c3ccc(F)cc3)ccc2C1)N1CCN(C2CCC2)CC1 [Compound 407, 2-[2-(4-cyclobutylpiperazin-1-yl)-2-oxoethyl]-6-(4-fluorophenyl)-1,2,3,4-tetrahydroisoquinoline] |  | ≥ 90%
18 | CC(C)N1CCN(C(=O)CN2CCc3cc(-c4cccc(F)c4)ccc3C2)CC1 [Compound 413, 6-(3-fluorophenyl)-2-[2-(4-isopropylpiperazin-1-yl)-2-oxoethyl]-1,2,3,4-tetrahydroisoquinoline] |  | ≥ 90%

More lines, now with the values ahead:

Row | inhibition at 4 µM (Table II "Ki", symbol †) | inhibition at 4 µM ("†" in Ki of Table II) | Structure (SMILES)
19 |  | ≥ 90% | O=C(CN1CCc2cc(-c3ccccc3)ccc2C1)N1CCN(C2CCCC2)CC1 [Compound 399, 2-[2-(4-cyclopentylpiperazin-1-yl)-2-oxoethyl]-6-phenyl-1,2,3,4-tetrahydroisoquinoline]
20 |  | ≥ 90% | O=C(CN1CCc2cc(-c3ccccc3)ccc2C1)N1CCN(C2CCCCC2)CC1 [Compound 400, 2-[2-(4-cyclohexylpiperazin-1-yl)-2-oxoethyl]-6-phenyl-1,2,3,4-tetrahydroisoquinoline]
21 |  | ≥ 90% | O=C(CN1CCc2cc(-c3cccc(Cl)c3)ccc2C1)N1CCN(C2CCC2)CC1 [Compound 401, 6-(3-chlorophenyl)-2-[2-(4-cyclobutylpiperazin-1-yl)-2-oxoethyl]-1,2,3,4-tetrahydroisoquinoline]
22 |  | ≥ 90% | O=C(CN1CCc2cc(-c3cccc(Cl)c3)ccc2C1)N1CCN(C2CCCC2)CC1 [Compound 402, 6-(3-chlorophenyl)-2-[2-(4-cyclopentylpiperazin-1-yl)-2-oxoethyl]-1,2,3,4-tetrahydroisoquinoline]
23 |  | ≥ 90% | O=C(CN1CCc2cc(-c3cccc(Cl)c3)ccc2C1)N1CCN(C2CCCCC2)CC1 [Compound 403, 6-(3-chlorophenyl)-2-[2-(4-cyclohexylpiperazin-1-yl)-2-oxoethyl]-1,2,3,4-tetrahydroisoquinoline]
24 |  | ≥ 90% | O=C(CN1CCc2cc(-c3ccc(F)cc3)ccc2C1)N1CCN(C2CCCC2)CC1 [Compound 408, 2-[2-(4-cyclopentylpiperazin-1-yl)-2-oxoethyl]-6-(4-fluorophenyl)-1,2,3,4-tetrahydroisoquinoline]
25 |  | ≥ 90% | O=C(CN1CCc2cc(-c3ccc(F)cc3)ccc2C1)N1CCN(C2CCCCC2)CC1 [Compound 409, 2-[2-(4-cyclohexylpiperazin-1-yl)-2-oxoethyl]-6-(4-fluorophenyl)-1,2,3,4-tetrahydroisoquinoline]
26 |  | ≥ 90% | O=C(CN1CCc2cc(-c3cccc(F)c3)ccc2C1)N1CCN(C2CCC2)CC1 [Compound 410, 2-[2-(4-cyclobutylpiperazin-1-yl)-2-oxoethyl]-6-(3-fluorophenyl)-1,2,3,4-tetrahydroisoquinoline]
27 |  | ≥ 90% | O=C(CN1CCc2cc(-c3cccc(F)c3)ccc2C1)N1CCN(C2CCCC2)CC1 [Compound 411, 2-[2-(4-cyclopentylpiperazin-1-yl)-2-oxoethyl]-6-(3-fluorophenyl)-1,2,3,4-tetrahydroisoquinoline]
28 |  | ≥ 90% | O=C(CN1CCc2cc(-c3cccc(F)c3)ccc2C1)N1CCN(C2CCCCC2)CC1 [Compound 412, 2-[2-(4-cyclohexylpiperazin-1-yl)-2-oxoethyl]-6-(3-fluorophenyl)-1,2,3,4-tetrahydroisoquinoline]
